In the test the target is tau (Homo sapiens, UniProt P10636). As to the kind of experiment: MCE Phenols Library screening, tau biosensor cell seeding assay (AvZ). The settings on record: for Z repl 1 / Z Repl 2: Z score; for Z repl 1 / raw data 1: replicate 1; for Z Repl 2 / raw data 2: replicate 2; for AvZ (average z score of seeding, SDs from the mean level of seeding): 10 μM phenol in cell cultures, AD brain homogenate preincubated 16 hours, two biological replicates, positive = catalyzes seeding, negative = inhibits. Type of test: cell-based.
tau, sequence (P10636 623-695 limits assumed): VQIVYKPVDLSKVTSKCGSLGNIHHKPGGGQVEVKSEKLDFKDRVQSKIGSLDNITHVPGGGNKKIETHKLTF

[1] abbreviates: average Z score of the two replicates, tau seeding.
Setting [2] is: average puncta of the two replicates.
Setting [3] is: average Z score of the two replicates, MCE Phenols Library screen.
The mark [4] stands for this setting: average Z score of two replicates, Phenols Library screen.

For `Oc1ccc(OC2CCCCO2)cc1` (centres unmarked) [Deoxyarbutin], the “Z repl 1” value was found to be 0.557 and the “Z Repl 2” value was -0.129. In addition, the “av Z” value under setting [1] is reported as 0.214. This compound returned an av puncta (average of raw data 1 and 2) of 22209.6. Further, under “puncta”, the “raw data 1” value stood at 33032.9 and the “raw data 2” value is recorded as 11386.3.

For `COc1cc([C@@H]2c3cc4c(cc3C[C@H]3COC(=O)[C@@H]32)OCO4)cc(OC)c1OC` [Deoxypodophyllotoxin], the “Z repl 1” value amounted to 3.44 and the “Z Repl 2” value is 3.821. Further, where the note is “average Z score of the two replicates, tau biosensor seeding, MCE Phenols Library screen”, the “av Z” value is 3.63. Where the note is “average of raw data 1 and 2”, this compound came in with an av puncta of 60606.3. Further, where the note is “puncta”, the “raw data 1” value turned out to be 67641.6 and the “raw data 2” value is reported as 53571.1.

Take `COc1ccc(/C=C/c2cc(O)cc(O[C@@H]3O[C@H](CO)[C@@H](O)[C@H](O)[C@H]3O)c2)cc1` [Desoxyrhaponticin]: the “Z repl 1” value came out at 0.811 and the “Z Repl 2” value is -0.238. Under setting [1], the “av Z” value worked out at 0.286. Further, the av puncta (average of raw data 1 and 2) is listed as 23150.9. Further, under “puncta”, the “raw data 1” value came out at 36082.1 and the “raw data 2” value came to 10219.6.

For `COc1cc(-c2coc3cc4c(c(O)c3c2=O)OCO4)cc(O)c1OC` [Dichotomitin], the “Z repl 1” value turned out to be 0.855 and the “Z Repl 2” value was found to be 0.348. Besides, the “av Z” value under setting [1] turned out to be 0.602. Besides, the av puncta (average of raw data 1 and 2) is listed as 26548.7. In addition, under “puncta”, the “raw data 1” value was found to be 36614.6 and the “raw data 2” value stood at 16482.8.

With `O=C(O)CCc1ccc(O)c(O)c1` [Dihydrocaffeic acid], the “AvZ (average z score of seeding, SDs from the mean level of seeding)” value (shortened to “AvZ”) was -0.454; the “Z repl 1” value turned out to be 0.014; the “Z Repl 2” value is recorded as -0.922. Also, the av puncta under setting [2] is 14716.5. For the same compound, for the setting “raw puncta”, the “raw data 1” value stood at 26515.6 and the “raw data 2” value came to 2917.33.

For `O=C1c2ccc(O)cc2OCC1c1ccc(O)cc1` (centres unmarked) [Dihydrodaidzein], the “Z repl 1” value is recorded as -0.987 and the “Z Repl 2” value is listed as -0.442. Under setting [3], the “av Z” value is on record as -0.715. The av puncta under setting [2] is on record as 11271.3. Besides, where the note is “puncta”, the “raw data 1” value is recorded as 14500 and the “raw data 2” value came out at 8042.62.

Consider `COc1cc(CC(C)C(C)Cc2ccc(O)c(OC)c2)ccc1O` (centres unmarked) [Dihydroguaiaretic acid], for which the “Z repl 1” value was -0.958 and the “Z Repl 2” value was -0.625. The “av Z” value under setting [3] is listed as -0.792. In addition, for the setting “average of raw data 1 and 2”, the av puncta worked out at 10465.9. Under “puncta”, the “raw data 1” value amounted to 14843.2 and the “raw data 2” value was 6088.67.

With `O=C1c2c(O)cc(O)cc2O[C@H](c2ccc(O)cc2)[C@H]1O` [Dihydrokaempferol], the “Z repl 1” value is -0.147 and the “Z Repl 2” value was 0.084. Also, the “av Z” value under setting [4] is reported as -0.031. This compound also displayed an av puncta (average of raw data 1 and 2) of 19127. Moreover, under “puncta”, the “raw data 1” value stood at 24585.9 and the “raw data 2” value turned out to be 13668.2.

Take `O=C1c2c(O)cc(O)cc2O[C@H](c2cc(O)c(O)c(O)c2)[C@H]1O` [Dihydromyricetin]: the “Z repl 1” value was -1.346 and the “Z Repl 2” value is recorded as -0.885. For the same compound, the “av Z” value under setting [3] is -1.115. Also, under “puncta”, the “raw data 1” value was determined as 10190.2 and the “raw data 2” value worked out at 3319.03.

In the case of `COc1cc(CCCO)cc(OC)c1O` [Dihydrosinapyl alcohol], the “AvZ” value was -0.284; the “Z repl 1” value is listed as -0.789; the “Z Repl 2” value is 0.221. The av puncta under setting [2] worked out at 16004.7. Besides, where the note is “raw puncta”, the “raw data 1” value came to 16882.6 and the “raw data 2” value was determined as 15126.8.

`COc1cc2c(O)c3c(c(-c4ccc5c(c4)OCO5)c2cc1OC)C(=O)OC3` [Diphyllin]: the “Z repl 1” value was -0.334 and the “Z Repl 2” value is -0.918. Moreover, the “av Z” value under setting [3] was -0.626. This compound gave an av puncta under setting [2] of 12650.9. Moreover, for the setting “puncta”, the “raw data 1” value was determined as 22335.7 and the “raw data 2” value amounted to 2966.05.

In the case of `COc1cc(O)ccc1/C=C/C(=O)c1ccc(O)cc1` [Echinatin], the “Z repl 1” value is recorded as -1.092 and the “Z Repl 2” value is listed as -0.742. Further, the “av Z” value under setting [3] was -0.917. Under “average of raw data 1 and 2”, this compound gave an av puncta of 9040.03. Also, under “puncta”, the “raw data 1” value was determined as 13242.9 and the “raw data 2” value is 4837.17.

In the case of `O=c1oc2c(O)c(O)cc3c(=O)oc4c(O)c(O)cc1c4c23` [Ellagic acid], the “Z repl 1” value was -1.043 and the “Z Repl 2” value is recorded as -0.067. The “av Z” value under setting [3] is -0.555. Further, the av puncta under setting [2] is reported as 12935.6. Under “puncta”, the “raw data 1” value is on record as 13826.2 and the “raw data 2” value amounted to 12045.1.

In the case of `Cc1cc(O)c2c(c1)C(=O)c1cc(O)cc(O[C@@H]3O[C@H](CO)[C@@H](O)[C@H](O)[C@H]3O)c1C2=O` [Emodin-8-glucoside], the “Z repl 1” value came out at 0.113 and the “Z Repl 2” value is listed as -0.367. For the same compound, under setting [4], the “av Z” value is on record as -0.127. Also, the av puncta (average of raw data 1 and 2) is given as 18275.8. Where the note is “puncta”, the “raw data 1” value is 27700.1 and the “raw data 2” value amounted to 8851.57.

On to `Cc1cc(O)c2c(c1)C(=O)c1cc(O)cc(O)c1C2=O` [Emodin], for which the “Z repl 1” value came to 0.139 and the “Z Repl 2” value is -0.692. For the same compound, the “av Z” value under setting [3] is -0.277. Also, the av puncta under setting [2] was found to be 16696.4. For the same compound, where the note is “raw puncta”, the “raw data 1” value came out at 28020.6 and the “raw data 2” value is on record as 5372.21.

Turning to `COc1ccc(-c2oc3c(CC=C(C)C)c(O[C@@H]4O[C@H](CO)[C@@H](O)[C@H](O)[C@H]4O)cc(O)c3c(=O)c2O[C@@H]2O[C@@H](C)[C@H](O)[C@@H](O)[C@H]2O[C@@H]2O[C@H](CO)[C@@H](O)[C@H](O)[C@H]2O)cc1` [Epimedin A], the “Z repl 1” value is recorded as -1.302 and the “Z Repl 2” value was -0.744. Besides, the “av Z” value under setting [3] is recorded as -1.023. Besides, where the note is “average of raw data 1 and 2”, the av puncta is 7768.23. Besides, where the note is “puncta”, the “raw data 1” value came to 10713.2 and the “raw data 2” value came out at 4823.23.

`COc1ccc(-c2oc3c(CC=C(C)C)c(O[C@@H]4O[C@H](CO)[C@@H](O)[C@H](O)[C@H]4O)cc(O)c3c(=O)c2O[C@@H]2O[C@@H](C)[C@H](O)[C@@H](O)[C@H]2O[C@@H]2OC[C@@H](O)[C@H](O)[C@H]2O)cc1` [Epimedin B]: the “Z repl 1” value was determined as 0.357 and the “Z Repl 2” value came to 0.482. Moreover, the “av Z” value under setting [1] is given as 0.42. This compound returned an av puncta (average of raw data 1 and 2) of 24278.7. Moreover, where the note is “puncta”, the “raw data 1” value amounted to 30639 and the “raw data 2” value stood at 17918.4.

For `CC(C)=CCc1c(O[C@@H]2O[C@H](CO)[C@@H](O)[C@H](O)[C@H]2O)cc(O)c2c(=O)c(O[C@@H]3O[C@@H](C)[C@H](O)[C@@H](O)[C@H]3O)c(-c3ccc(O)cc3)oc12` [Epimedoside A], the “Z repl 1” value is 0.582 and the “Z Repl 2” value is given as -0.181. Also, the “av Z” value under setting [1] came out at 0.2. The compound further gave an av puncta (average of raw data 1 and 2) of 22081.1. Under “puncta”, the “raw data 1” value is recorded as 33332 and the “raw data 2” value is 10830.3.

Take `O=C1C[C@@H](c2ccc(O)c(O)c2)Oc2cc(O[C@@H]3O[C@H](CO)[C@@H](O)[C@H](O)[C@H]3O)cc(O)c21` [Eriodictyol-7-O-glucoside]: the “Z repl 1” value is listed as -0.303 and the “Z Repl 2” value turned out to be 0.417. Besides, the “av Z” value under setting [4] is on record as 0.057. Where the note is “average of raw data 1 and 2”, this compound registered an av puncta of 19967.8. Besides, where the note is “puncta”, the “raw data 1” value amounted to 22716.1 and the “raw data 2” value was 17219.4.

Turning to `O=C1C[C@@H](c2ccc(O)c(O)c2)Oc2cc(O)cc(O)c21` [Eriodictyol], the “Z repl 1” value is reported as -0.756 and the “Z Repl 2” value is reported as 0.192. The “av Z” value under setting [3] was -0.282. Moreover, the av puncta under setting [2] amounted to 16042.6. Further, for the setting “raw puncta”, the “raw data 1” value worked out at 17267.7 and the “raw data 2” value is reported as 14817.6.

Take `O=c1ccc2cc(O)c(O)cc2o1` [Esculetin]: the “Z repl 1” value is -0.338 and the “Z Repl 2” value is -0.78. Also, the “av Z” value under setting [3] was -0.559. The av puncta under setting [2] came out at 13364.4. Also, where the note is “puncta”, the “raw data 1” value stood at 22288.3 and the “raw data 2” value is 4440.46.

In the case of `C[C@]12CC[C@@H]3c4ccc(O)cc4CC[C@H]3[C@@H]1C[C@@H](O)[C@@H]2O` [Estriol], the “Z repl 1” value is 0.006 and the “Z Repl 2” value is 0.639. Further, the “av Z” value under setting [1] is given as 0.322. This compound showed an av puncta (average of raw data 1 and 2) of 23004.4. Under “puncta”, the “raw data 1” value stood at 26418.8 and the “raw data 2” value was determined as 19589.9.

With `CCOC(=O)c1cc(O)c(O)c(O)c1` [Ethyl gallate], the “AvZ” value is -0.79; the “Z repl 1” value is on record as -0.43; the “Z Repl 2” value is given as -1.15. The compound also registered an av puncta (average of raw data 1 and 2) of 10837.2. In addition, for the setting “puncta”, the “raw data 1” value is on record as 21190.3 and the “raw data 2” value is recorded as 484.087.

Turning to `C#C[C@]1(O)CC[C@H]2[C@@H]3CCc4cc(O)ccc4[C@H]3CC[C@@]21C` [Ethynyl Estradiol], the “Z repl 1” value is on record as 0.578 and the “Z Repl 2” value was found to be 0.204. Moreover, under setting [1], the “av Z” value was determined as 0.391. Where the note is “average of raw data 1 and 2”, the av puncta is 24116.9. In addition, under “puncta”, the “raw data 1” value stood at 33285.2 and the “raw data 2” value was found to be 14948.5.

On to `C=CCc1ccc(O)c(OC)c1` [Eugenol], for which the “AvZ” value is on record as -0.624; the “Z repl 1” value was -0.386; the “Z Repl 2” value is -0.861. For the same compound, the av puncta under setting [2] was 12641.9. Further, for the setting “puncta”, the “raw data 1” value amounted to 21709.5 and the “raw data 2” value was determined as 3574.2.

With `COc1ccc(-c2cc(=O)c3c(O)c(OC)c(O)cc3o2)cc1OC` [Eupatilin], the “Z repl 1” value is reported as 0.583 and the “Z Repl 2” value worked out at 0.288. Further, the “av Z” value under setting [1] was determined as 0.436. The same compound yielded an av puncta (average of raw data 1 and 2) of 24597.1. In addition, where the note is “puncta”, the “raw data 1” value is 33348.4 and the “raw data 2” value was found to be 15845.8.

For the origin of these results see paper PMC11784839, “Monoaminergic neurotransmitters are bimodal effectors of tau aggregation” (Science Advances, 2025).
